Measurements as given in publication PMC10975012, “The Active Glucuronide Metabolite of the Brain Protectant IMM-H004 with Poor Blood–Brain Barrier Permeability Demonstrates a High Partition in the Rat Brain via Multiple Mechanisms” (Pharmaceutics, 2024).
Like-named read-outs stand apart in the source and are kept apart here.

What was measured:
HEB cells = experiment: In vitro metabolism in human brain cells (HEB); format: in vitro ADME; conditions: IMM-H004 1–100 μmol/L, up to 5 h
Method: SH-SY5Y, HEB, and hCMEC/D3 cells were utilized to investigate the in vitro metabolism of IMM-H004 and IMM-H004G in the brain. SH-SY5Y and HEB cells were cultured routinely in Dulbecco’s modified Eagle’s medium (DMEM) containing 10% fetal bovine serum and a 100 U/mL penicillin–100 μg/mL streptomycin solution. hCMEC/D3 cells were seeded on collagen type I coated 24-well plates and cultured in EndoGRO™-MV complete medium following the manufacturer’s guidelines. The cells were incubated at 37 °C, with 5% CO2, and were maintained in a humidified environment. Once the confluence reached 70–80%, the cells were digested using a 0.25% trypsin–EDTA solution, centrifuged at 200× g for 5 min, and then resuspended in a fresh culture medium. For each experiment, after seeding and 24 h incubation, the cells were washed twice with a prewarmed culture medium, and then IMM-H004 or IMM-H004G (1–100 μmol/L) dissolved in the culture medium was added. Incubation was carried out at 37 °C for 5 h or 24 h. After incubation, the supernatants were collected. Subsequently, the cells were washed with cold HBSS three times and lysed in a RIPA lysis buffer (Beyotime Inc., Shanghai, China). The concentrations of IMM-H004 and IMM-H004G were determined by liquid chromatography with tandem mass spectrometry (LC-MS/MS).

P-gp = experiment: Bidirectional transport in MDCKⅡ-MDR1 cell monolayers; format: in vitro ADME; conditions: dog
Method: To further validate the effect of P-gp on the transport of IMM-H004G or IMM-H004, MDCKⅡ-MDR1 cells were seeded onto polycarbonate membrane transwell inserts in 24-well plates and used for transport studies after 5 days or when the effective transepithelial electric resistance (TEER) values exceeded 300 Ω·cm^2. The monolayers were initially rinsed twice with HBSS. Subsequently, IMM-H004G or IMM-H004 (10 µmol/L) was added to either the apical or basolateral side of the monolayer. Aliquots of 50 µL were collected from the opposite compartment at various time points, covering a maximum duration of 120 min. Digoxin (5 μmol/L) was used as a positive substrate, while PSC833 (5 µmol/L) was used as an inhibitor in MDCKⅡ-MDR1 cells. The apparent permeability value (Papp) was calculated using the following equation:(2) Papp=dQ/dt/AC0 where dQ/dt is the slope of the cumulative transport amount over time during the study period. A is the base area of the insert, and C0 is the initial addition concentration.
The efflux ratio (ER) was calculated as follows:ER = Papp(B−A)/Papp(A−B) (3)

OATP1A2 = target: T1, OATP1A2 (Homo sapiens, UniProt P46721); experiment: Uptake in CHO-OATP1A2 overexpressing cells; format: cell-based; conditions: CHO-OATP1A2 vs mock, 10 min; IMM-H004G 10 μmol/L
T1 construct: host or cells: CHO
T1 sequence (P46721 1-670): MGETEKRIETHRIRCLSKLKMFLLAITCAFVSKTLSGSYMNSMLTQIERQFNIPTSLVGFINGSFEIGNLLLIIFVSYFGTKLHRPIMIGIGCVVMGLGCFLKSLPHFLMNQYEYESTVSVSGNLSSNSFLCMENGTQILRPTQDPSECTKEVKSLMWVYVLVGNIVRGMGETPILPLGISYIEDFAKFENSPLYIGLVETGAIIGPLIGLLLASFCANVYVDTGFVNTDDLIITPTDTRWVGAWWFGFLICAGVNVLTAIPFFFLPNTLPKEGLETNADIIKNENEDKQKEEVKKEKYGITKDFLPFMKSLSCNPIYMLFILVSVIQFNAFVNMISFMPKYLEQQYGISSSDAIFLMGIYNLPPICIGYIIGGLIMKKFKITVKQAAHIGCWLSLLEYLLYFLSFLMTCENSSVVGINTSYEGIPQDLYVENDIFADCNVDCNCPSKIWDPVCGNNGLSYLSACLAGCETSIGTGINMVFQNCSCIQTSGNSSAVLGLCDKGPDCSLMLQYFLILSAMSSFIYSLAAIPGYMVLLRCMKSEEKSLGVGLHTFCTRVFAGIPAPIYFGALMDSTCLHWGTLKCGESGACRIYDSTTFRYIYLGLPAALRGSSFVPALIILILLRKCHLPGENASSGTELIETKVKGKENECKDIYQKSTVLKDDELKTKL
Text: CHO cells and MDCKⅡ cells were stably transfected with lentiviruses carrying human SCLO1A2 (encoding OATP1A2) and SCLO2B1 (encoding OATP2B1), respectively. Cell transfected with lentiviruses carrying empty vectors served as control. Lentiviral plasmid packages were obtained from OBiO Technology (Shanghai, China), and procedures followed the instructions of the virus manual. Stably transfected cells were routinely grown in a 100 mm dish in DMEM with 10% fetal bovine serum. Prior to the experiments, the seeding density of the overexpressing cells in 24-well plates was 4 × 10^5 cells per well, and the medium was supplemented with 2 mM sodium butyrate for 24 h. The cultured cells were washed twice with prewarmed HBSS after removing the medium and then treated with 10 μmol/L IMM-H004G and 100 μmol/L rifampicin (or an equal amount of solvent dimethyl sulfoxide) for 10 min. After incubation, the cells were washed four times with cold HBSS. Follow-up sample processing procedures were as described in Section 2.3.1. E17βG (5 μmol/L) and rosuvastatin (10 μmol/L) were used as positive substrates in CHO-OATP1A2 and MDCKⅡ-OATP2B1 cells, respectively. The MDCKⅡ-MDR1 cells were previously established by our laboratory.

OATP = experiment: Identification of transporters using inhibitors in hCMEC/D3 cells: OATP; format: cell-based, human; conditions: substrate 10 μmol/L, inhibitor 100 μmol/L
Method: The toxicity of all compounds, including inhibitors and substrates, toward hCMEC/D3 cells, was assessed using the 3-(4,5-Dimethylthiazol-2-yl)-2,5-diphenyltetrazolium bromide (MTT) reduction assay as described previously. To assess the effects of pyrilamine-sensitive proton-coupled organic cation (H^+/OC) antiporter, organic anion transporter (OAT), organic anion-transporting polypeptides (OATPs), organic cation transporter (OCT), and novel organic cation–carnitine transporter (OCTN) inhibitors on the uptake process, IMM-H004 or IMM-H004G (10 µmol/L) combined with the inhibitors were added to the medium after preincubating the cells with the inhibitors for 30 min. For evaluating the impact of the multidrug and toxin extrusion transporter (MATE), P-glycoprotein (P-gp), multidrug resistance protein (MRP), and breast cancer resistance protein (BCRP) on the uptake, IMM-H004 or IMM-H004G (10 µmol/L) was preincubated with the cells for 2 h before the addition of the inhibitors. After removing the supernatant, the cells were washed twice with prewarmed HBSS and incubated with fresh HBSS for 20 min. At the end of incubation, the supernatants were collected. […] The protein content of the lysed cells was determined using a bicinchoninic acid (BCA) assay kit (Beyotime Inc., Shanghai, China). The results were expressed as a percentage of the vehicle control.

| production of IMM-H004G from IMM-H004 (HEB cells) | efflux ratio at 120 min (P-gp; MDCK-MDR1, with PSC833 5 µmol/L, MDCKⅡ-MDR1, PSC833 5 µmol/L, read-out: efflux ratio (ER) in the presence of PSC833) | efflux ratio at 120 min (P-gp; MDCK-MDR1, MDCKⅡ-MDR1, no inhibitor, IMM-H004 10 µmol/L, digoxin 5 μmol/L, read-out: efflux ratio (ER)) | uptake increase in OATP1A2-overexpressing cells compared to control cells (OATP1A2) [fold] | reduction of uptake by OATP inhibitor rifamycin (OATP) [%] | Compound |
| --- | --- | --- | --- | --- | --- |
| depended on both time and concentration | 1.1 | 2.96 |  |  | COc1cc(O)cc2oc(=O)c(N3CCN(C)CC3)c(C)c12 [IMM-H004] |
|  |  |  | 9.7 | 39.6 | COc1cc(OC2OC(C(=O)O)C(O)C(O)C2O)cc2oc(=O)c(N3CCN(C)CC3)c(C)c12 (centres unmarked) [IMM-H004G] |
